Reference: publication PMC8474606 (Brain, Behavior, & Immunity - Health, 2020)

Assays:
[1] = Brain uptake index; type: in vivo, rat; settings: data not shown
[2] = system: H+/OC antiporter; assay: DPHM uptake in BMECs after inflammatory cytokine treatment; settings: cytokine 0.1–30 ng/ml, 24 h; DPHM 30 μM, 30 s

Brain uptake of reference compound, control vs LPS rats [1]	Compound	Effect on DPHM uptake into BMECs [2]
similar	O=C(O)Cc1ccccc1Nc1c(Cl)cccc1Cl [diclofenac]	
	IL-1β: recombinant human interleukin-1β	little effect
	TNF-α	little effect
